The structures appear in SMILES notation. Like-named read-outs stand apart in the source and are kept apart here.

From US9297017B2, “Methods and compositions for targeted protein degradation” (University of Washington, priority 2010, dated 2016) come the findings set out here.

The target of experiment [1] is T1, full-length JAZ6 (Arabidopsis thaliana, UniProt Q9C9E3).
T1 construct: 6xHis; made in house; host or cells: Escherichia coli
T1 sequence (Q9C9E3 1-269): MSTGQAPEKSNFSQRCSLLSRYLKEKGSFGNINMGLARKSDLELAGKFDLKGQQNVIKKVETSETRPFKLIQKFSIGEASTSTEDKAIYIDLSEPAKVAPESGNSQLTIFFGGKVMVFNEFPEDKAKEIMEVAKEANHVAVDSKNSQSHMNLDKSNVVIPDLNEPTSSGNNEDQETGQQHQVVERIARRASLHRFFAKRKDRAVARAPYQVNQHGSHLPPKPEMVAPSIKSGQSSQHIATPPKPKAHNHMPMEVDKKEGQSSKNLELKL
The experiment is described as follows: Radioligand binding of 3H-coronatine to full-length JAZ6 alone. The source says: (§1) (^3H)-labeled coronatine was synthesized by Amersham. Full-length Arabidopsis thaliana COI1 and ASK1 were co-expressed as a glutathione S-transferase (GST) fusion protein and an untagged protein, respectively, in Hi5 suspension insect cells. The COI1/ASK1 complex was isolated from the soluble cell lysate by glutathione affinity chromatography. After on-column tag cleavage by tobacco etch virus protease, the complex was further purified by anion exchange and gel filtration chromatography and concentrated by ultrafiltration to 12-18 mg ml^−1. Full-length JAZ substrate proteins were expressed as 6×His-fusion proteins in Escherichia coli and purified on Ni-NTA resin with subsequent dialysis into 20 mM Tris-HCl, pH 8.0, 200 mM NaCl, and 10% glycerol.
Radioligand binding was assayed on purified proteins, with 2 mg COI1/ASK1 complex and JAZ proteins at a 1:3 molar ratio. […] Nonspecific binding was determined in the presence of […] coronatine. Competition binding experiments were conducted with serial dilutions of JA-Ile in the presence of 100 nM ^3H coronatine with nonspecific binding determined in the presence of […] coronatine. Total binding was determined in the presence of vehicle only. Two-point binding experiments were performed in the presence of 100 nM or 300 nM ^3H-coronatine with nonspecific binding determined in the presence of 300 mM coronatine. […]

In experiment [2] the target is T2, COI1-JAZ6 complex (Arabidopsis thaliana, UniProt O04197+Q9C9E3).
T2 construct: Full-length Arabidopsis thaliana COI1 and ASK1 were co-expressed; Full-length JAZ substrate proteins were expressed as 6×His-fusion proteins in Escherichia coli; GST (cleaved yes); 6xHis; made in house; host or cells: Hi5 insect cells (COI1/ASK1); Escherichia coli (JAZ6)
T2 sequence (O04197 1-592): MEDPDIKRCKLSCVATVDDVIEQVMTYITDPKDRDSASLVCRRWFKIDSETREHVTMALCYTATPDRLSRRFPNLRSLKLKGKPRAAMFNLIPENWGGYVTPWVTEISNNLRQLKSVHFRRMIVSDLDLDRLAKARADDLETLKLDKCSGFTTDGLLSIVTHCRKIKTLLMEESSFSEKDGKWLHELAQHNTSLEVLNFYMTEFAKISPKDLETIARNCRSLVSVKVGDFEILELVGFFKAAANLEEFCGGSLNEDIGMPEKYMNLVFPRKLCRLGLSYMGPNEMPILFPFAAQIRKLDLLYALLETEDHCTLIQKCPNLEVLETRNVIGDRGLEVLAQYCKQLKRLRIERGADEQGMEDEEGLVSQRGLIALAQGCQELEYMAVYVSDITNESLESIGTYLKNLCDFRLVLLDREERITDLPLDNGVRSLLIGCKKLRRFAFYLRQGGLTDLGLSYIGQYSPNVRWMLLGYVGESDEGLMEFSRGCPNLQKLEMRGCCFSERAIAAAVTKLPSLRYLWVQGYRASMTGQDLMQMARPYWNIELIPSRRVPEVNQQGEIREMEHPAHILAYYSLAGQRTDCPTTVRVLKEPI
T2 sequence (Q39255 1-160 partner): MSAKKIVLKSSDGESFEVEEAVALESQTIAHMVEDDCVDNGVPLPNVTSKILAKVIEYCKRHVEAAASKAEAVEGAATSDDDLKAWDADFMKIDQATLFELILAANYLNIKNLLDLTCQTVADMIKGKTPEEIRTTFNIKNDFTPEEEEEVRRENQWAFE
T2 sequence (Q9C9E3 1-269): T1 sequence (Q9C9E3 1-269)
The experiment is described as follows: Competition binding with 100 nM 3H-coronatine. The following applies: relative to (3R,7S)-JA-Ile.
Excerpt: as §1
Radioligand binding was assayed on purified proteins, with 2 mg COI1/ASK1 complex and JAZ proteins at a 1:3 molar ratio. Reactions were prepared in […] final volume and in a binding buffer containing 20 mM Tris-HCl 200 mM NaCl, and 10% glycerol. Saturation binding experiments were conducted with serial dilutions of 3H-coronatine in binding buffer. Nonspecific binding was determined in the presence of […] coronatine. Competition binding experiments were conducted with serial dilutions of JA-Ile in the presence of 100 nM ^3H coronatine with nonspecific binding determined in the presence of […] coronatine. Total binding was determined in the presence of vehicle only. Two-point binding experiments were performed in the presence of 100 nM or 300 nM ^3H-coronatine with nonspecific binding determined in the presence of […] coronatine. Following incubation with mixing at 4° C., all samples were collected with a cell harvester (Brandel, Gaithersburg, Md.) on polyethyleneimine (Sigma)-treated filters. […] Saturation binding experiments were analyzed by nonlinear regression, competition binding experiments by nonlinear regression with Ki calculation as described previously (Cheng 1973), and concentration-response data by sigmoidal dose-response curve fitting, all using GraphPad Prism version 4.00 for MacOSX.

For the molecule `CC[C@H]1C=C(C(=O)N[C@@]2(C(=O)O)C[C@@H]2CC)[C@H]2CCC(=O)[C@H]2C1` [coronatine], the “Binding affinity for JAZ6 alone” value in experiment [1] is given as “minimal binding affinity”; in experiment [1] (listed as 3H-coronatine) it was “no appreciable binding affinity”. Besides, in experiment [2], the “Affinity of coronatine over (3R,7S)-JA-Ile in binding assays” value was “approximately tenfold”.
